Measurements reported in PubChem BioAssay (NCI).
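Five compound concentrations were applied to cells in 96-well plates for 48 hours; endpoints were derived by simple linear interpolation of the resulting dose-response curve. At the GI50, growth is halved. TGI denotes the concentration required for complete inhibition of growth.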

Tests used:
Assay in all cases: inhibition of tumour cell growth, NCI panel, 48 h
786-0 renal = system: 786-0 renal
A498 renal = system: A498 renal
A549 NSCLC = system: A549 NSCLC
ACHN renal = system: ACHN renal
BT-549 breast = system: BT-549 breast
CAKI-1 renal = system: CAKI-1 renal
CCRF-CEM leukemia = system: CCRF-CEM leukemia
COLO 205 colon = system: COLO 205 colon
DU-145 prostate = system: DU-145 prostate
EKVX NSCLC = system: EKVX NSCLC
HCC-2998 colon = system: HCC-2998 colon
HCT-116 colon = system: HCT-116 colon
HCT-15 colon = system: HCT-15 colon
HL-60(TB) leukemia = system: HL-60(TB) leukemia
HOP-62 NSCLC = system: HOP-62 NSCLC
HOP-92 NSCLC = system: HOP-92 NSCLC
HS 578T breast = system: HS 578T breast
HT29 colon = system: HT29 colon
IGROV1 ovarian = system: IGROV1 ovarian
K-562 leukemia = system: K-562 leukemia
KM12 colon = system: KM12 colon
LOX IMVI melanoma = system: LOX IMVI melanoma
M14 melanoma = system: M14 melanoma
MCF7 breast = system: MCF7 breast
MDA-MB-231 breast = system: MDA-MB-231 breast
MDA-MB-435 = system: MDA-MB-435
MOLT-4 leukemia = system: MOLT-4 leukemia
NCI-H226 lung = system: NCI-H226 lung
NCI-H23 lung = system: NCI-H23 lung
NCI-H460 lung = system: NCI-H460 lung
NCI-H522 lung = system: NCI-H522 lung
NCI/ADR-RES ovarian = system: NCI/ADR-RES ovarian
OVCAR-3 ovarian = system: OVCAR-3 ovarian
OVCAR-4 ovarian = system: OVCAR-4 ovarian
OVCAR-5 ovarian = system: OVCAR-5 ovarian
OVCAR-8 ovarian = system: OVCAR-8 ovarian
PC-3 prostate = system: PC-3 prostate
RPMI-8226 leukemia = system: RPMI-8226 leukemia
RXF 393 renal = system: RXF 393 renal
SF-268 CNS = system: SF-268 CNS
SF-295 CNS = system: SF-295 CNS
SF-539 CNS = system: SF-539 CNS
SK-MEL-2 melanoma = system: SK-MEL-2 melanoma
SK-MEL-28 melanoma = system: SK-MEL-28 melanoma
SK-MEL-5 melanoma = system: SK-MEL-5 melanoma
SK-OV-3 ovarian = system: SK-OV-3 ovarian
SN12C renal = system: SN12C renal
SNB-19 CNS = system: SNB-19 CNS
SW-620 colon = system: SW-620 colon
T-47D breast = system: T-47D breast
TK-10 renal = system: TK-10 renal
U251 CNS = system: U251 CNS
UACC-257 melanoma = system: UACC-257 melanoma
UACC-62 melanoma = system: UACC-62 melanoma
UO-31 renal = system: UO-31 renal

O=S(=O)(c1cccc2c(I)cccc12)N1CCCNCC1
GI50 (786-0 renal): 16.9 µM | TGI (786-0 renal): 32.8 µM | GI50 (A498 renal): 14.2 µM | TGI (A498 renal): 30.2 µM | GI50 (A549 NSCLC): 37 µM | TGI (A549 NSCLC): > 100 µM | GI50 (ACHN renal): 18.1 µM | TGI (ACHN renal): 33.6 µM | GI50 (BT-549 breast): 16.7 µM | TGI (BT-549 breast): 43.3 µM | GI50 (CAKI-1 renal): 19.2 µM | TGI (CAKI-1 renal): 37.8 µM | GI50 (CCRF-CEM leukemia): 14.1 µM | TGI (CCRF-CEM leukemia): 32.2 µM | GI50 (COLO 205 colon): 29.1 µM | TGI (COLO 205 colon): > 100 µM | GI50 (DU-145 prostate): 15.8 µM | TGI (DU-145 prostate): 36.3 µM | GI50 (EKVX NSCLC): 19.8 µM | TGI (EKVX NSCLC): 39.7 µM | GI50 (HCC-2998 colon): 17.4 µM | TGI (HCC-2998 colon): 35.1 µM | GI50 (HCT-116 colon): 15.4 µM | TGI (HCT-116 colon): 32.6 µM | GI50 (HCT-15 colon): 17.9 µM | TGI (HCT-15 colon): 34.7 µM | GI50 (HL-60(TB) leukemia): 14.2 µM | TGI (HL-60(TB) leukemia): 43.4 µM | GI50 (HOP-62 NSCLC): 16.5 µM | TGI (HOP-62 NSCLC): 34.4 µM | GI50 (HOP-92 NSCLC): 14.1 µM | TGI (HOP-92 NSCLC): 32.5 µM | GI50 (HS 578T breast): 15.4 µM | TGI (HS 578T breast): 39.5 µM | GI50 (HT29 colon): 20.8 µM | TGI (HT29 colon): 55.3 µM | GI50 (IGROV1 ovarian): 15.8 µM | TGI (IGROV1 ovarian): 31.4 µM | GI50 (K-562 leukemia): 10.9 µM | TGI (K-562 leukemia): 30.4 µM | GI50 (KM12 colon): 16.3 µM | TGI (KM12 colon): 33.9 µM | GI50 (LOX IMVI melanoma): 18.3 µM | TGI (LOX IMVI melanoma): 36.6 µM | GI50 (M14 melanoma): 19.8 µM | TGI (M14 melanoma): 39.2 µM | GI50 (MCF7 breast): 36.1 µM | TGI (MCF7 breast): > 100 µM | GI50 (MDA-MB-231 breast): 19.5 µM | TGI (MDA-MB-231 breast): 36.7 µM | GI50 (MDA-MB-435): 17.7 µM | TGI (MDA-MB-435): 35.6 µM | GI50 (MOLT-4 leukemia): 10.9 µM | TGI (MOLT-4 leukemia): 27.6 µM | GI50 (NCI-H226 lung): 17.8 µM | TGI (NCI-H226 lung): 34.8 µM | GI50 (NCI-H23 lung): 17 µM | TGI (NCI-H23 lung): 34 µM | GI50 (NCI-H460 lung): 33.2 µM | TGI (NCI-H460 lung): > 100 µM | GI50 (NCI-H522 lung): 14.8 µM | TGI (NCI-H522 lung): 30.3 µM | GI50 (NCI/ADR-RES ovarian): 20.2 µM | TGI (NCI/ADR-RES ovarian): 43.5 µM | GI50 (OVCAR-3 ovarian): 18.7 µM | TGI (OVCAR-3 ovarian): 43.3 µM | GI50 (OVCAR-4 ovarian): 18.6 µM | TGI (OVCAR-4 ovarian): 38.4 µM | GI50 (OVCAR-5 ovarian): 16 µM | TGI (OVCAR-5 ovarian): 33.5 µM | GI50 (OVCAR-8 ovarian): 24.4 µM | TGI (OVCAR-8 ovarian): 51.9 µM | GI50 (PC-3 prostate): 14.9 µM | TGI (PC-3 prostate): 32.8 µM | GI50 (RPMI-8226 leukemia): 14.5 µM | TGI (RPMI-8226 leukemia): 38.5 µM | GI50 (RXF 393 renal): 27.3 µM | TGI (RXF 393 renal): 73 µM | GI50 (SF-268 CNS): 26.6 µM | TGI (SF-268 CNS): > 100 µM | GI50 (SF-295 CNS): 16.1 µM | TGI (SF-295 CNS): 34.1 µM | GI50 (SF-539 CNS): 15.7 µM | TGI (SF-539 CNS): 32.8 µM | GI50 (SK-MEL-2 melanoma): 16.7 µM | TGI (SK-MEL-2 melanoma): 33.6 µM | GI50 (SK-MEL-28 melanoma): 21.6 µM | TGI (SK-MEL-28 melanoma): 44.2 µM | GI50 (SK-MEL-5 melanoma): 8.71 µM | TGI (SK-MEL-5 melanoma): 25.2 µM | GI50 (SK-OV-3 ovarian): 20.2 µM | TGI (SK-OV-3 ovarian): 37.6 µM | GI50 (SN12C renal): 21.2 µM | TGI (SN12C renal): 38.4 µM | GI50 (SNB-19 CNS): 20.9 µM | TGI (SNB-19 CNS): 42.8 µM | GI50 (SW-620 colon): 17.1 µM | TGI (SW-620 colon): 51.4 µM | GI50 (T-47D breast): 25.4 µM | TGI (T-47D breast): 64.9 µM | GI50 (TK-10 renal): 12.8 µM | TGI (TK-10 renal): 28 µM | GI50 (U251 CNS): 19.6 µM | TGI (U251 CNS): 39.1 µM | GI50 (UACC-257 melanoma): 23.1 µM | TGI (UACC-257 melanoma): 43.2 µM | GI50 (UACC-62 melanoma): 19.9 µM | TGI (UACC-62 melanoma): 37.3 µM | GI50 (UO-31 renal): 15.6 µM | TGI (UO-31 renal): 34 µM
